In ChEMBL document CHEMBL4828722, “The synthesis and bioactivity of pyrrolo[2,3-d]pyrimidine derivatives as tyrosine kinase inhibitors for NSCLC cells with EGFR mutations” (Eur J Med Chem, 2021):
Activity calls are given as the source filed them. The rule behind the calls is not given here.

The compounds below were run on HCC827 (assay: Induction of apoptosis in human HCC827 cells harboring EGFR del E746-A750 mutant assessed as early apoptotic cells at 5 uM measured after 18 hrs by Annexin V-FITC/PI staining based flow cytometry analysis (Rvb= 9.6%)). Settings: not given.
Assay type: functional

SMILES | Activity [%]
C=CC(=O)Nc1cccc(Oc2nc(Nc3ccc(N4CCN(C)CC4)c(F)c3)nc3[nH]ccc23)c1 [ABIVERTINIB] | 13.8

The compounds below were run on HCC827 (assay: Induction of apoptosis in human HCC827 cells harboring EGFR del E746-A750 mutant assessed as total apoptotic cells at 0.5 uM measured after 18 hrs by Annexin V-FITC/PI staining based flow cytometry analysis (Rvb= 10.8%)). Settings: not given.
Assay type: functional

SMILES | Activity [%]
C=CC(=O)Nc1cccc(Oc2nc(Nc3ccc(N4CCN(C)CC4)c(F)c3)nc3[nH]ccc23)c1 [ABIVERTINIB] | 30.3

Each compound was assayed on HCC827 (assay: Induction of cell cycle arrest in human HCC827 cells harboring EGFR del E746-A750 mutant assessed as accumulation of cells in S phase at 0.5 uM measured after 18 hrs by PI/RNaseA staining based flow cytometry analysis (Rvb= 33.62%)). Settings: not given.
Assay type: functional

SMILES | Activity [%]
C=CC(=O)Nc1cccc(Oc2nc(Nc3ccc(N4CCN(C)CC4)c(F)c3)nc3[nH]ccc23)c1 [ABIVERTINIB] | 15.36

These compounds were tested against Mitogen-activated protein kinase; ERK1/ERK2 (Homo sapiens) (UniProt P27361+P28482) (assay: Inhibition of ERK1/2 phosphorylation at Thr202/Tyr204 residue in human HBE cells at 5 uM incubated for 2 hrs by immunoblotting analysis). Settings: not given.
Mitogen-activated protein kinase; ERK1/ERK2 (Homo sapiens), sequence (P27361 whole entry, looked up): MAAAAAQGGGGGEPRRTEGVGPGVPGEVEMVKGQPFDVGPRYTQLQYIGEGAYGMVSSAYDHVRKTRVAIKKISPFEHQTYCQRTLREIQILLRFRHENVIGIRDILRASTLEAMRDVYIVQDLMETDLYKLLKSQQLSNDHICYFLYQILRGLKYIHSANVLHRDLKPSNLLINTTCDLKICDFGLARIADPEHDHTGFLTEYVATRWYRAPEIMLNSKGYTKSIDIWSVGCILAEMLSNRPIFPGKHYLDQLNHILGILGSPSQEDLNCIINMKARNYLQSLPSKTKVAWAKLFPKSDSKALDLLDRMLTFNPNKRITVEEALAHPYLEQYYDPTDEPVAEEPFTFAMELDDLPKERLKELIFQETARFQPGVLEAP
Mitogen-activated protein kinase; ERK1/ERK2 (Homo sapiens), sequence (P28482 whole entry, looked up): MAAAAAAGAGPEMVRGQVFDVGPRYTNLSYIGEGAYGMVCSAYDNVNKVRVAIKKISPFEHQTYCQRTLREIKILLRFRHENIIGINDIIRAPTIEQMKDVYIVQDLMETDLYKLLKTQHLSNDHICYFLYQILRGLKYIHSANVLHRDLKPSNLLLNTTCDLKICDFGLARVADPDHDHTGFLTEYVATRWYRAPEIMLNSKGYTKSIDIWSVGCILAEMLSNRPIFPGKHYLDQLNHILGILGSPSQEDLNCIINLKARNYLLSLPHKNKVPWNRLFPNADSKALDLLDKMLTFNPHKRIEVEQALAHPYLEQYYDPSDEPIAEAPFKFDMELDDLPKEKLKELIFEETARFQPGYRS
Assay type: cell-based

SMILES | inhibition
C=CC(=O)Nc1cccc(Oc2nc(Nc3ccc(N4CCN(C)CC4)c(F)c3)nc3[nH]ccc23)c1 [ABIVERTINIB] | Active

These compounds were tested on A549 (assay: Induction of cell cycle arrest in human A549 cells harboring wild type EGFR assessed as accumulation of cells in G0/G1 phase at 0.5 uM measured after 18 hrs by PI/RNaseA staining based flow cytometry analysis (Rvb= 58.27%)). Settings: not given.
Assay type: functional

SMILES | Activity [%]
C=CC(=O)Nc1cccc(Oc2nc(Nc3ccc(N4CCN(C)CC4)c(F)c3)nc3[nH]ccc23)c1 [ABIVERTINIB] | 59.82

The compounds below were run on NCI-H1975 (assay: Induction of apoptosis in human NCI-H1975 cells harboring EGFR L858R/T790M mutant assessed as dead cells at 5 uM measured after 18 hrs by Annexin V-FITC/PI staining based flow cytometry analysis (Rvb= […])). Settings: not given.
Assay type: functional

SMILES | Activity [%]
C=CC(=O)Nc1cccc(Oc2nc(Nc3ccc(N4CCN(C)CC4)c(F)c3)nc3[nH]ccc23)c1 [ABIVERTINIB] | 2

What follows are compounds tested on NCI-H1975 (assay: Induction of cell cycle arrest in human NCI-H1975 cells harboring EGFR L858R/T790M mutant assessed as accumulation of cells in G0/G1 phase at 5 uM measured after 18 hrs by PI/RNaseA staining based flow cytometry analysis (Rvb= 42.69%)). Settings: not given.
Assay type: functional

SMILES | Activity [%]
C=CC(=O)Nc1cccc(Oc2nc(Nc3ccc(N4CCN(C)CC4)c(F)c3)nc3[nH]ccc23)c1 [ABIVERTINIB] | 79.06

What follows are compounds tested on HCC827 (assay: Induction of cell cycle arrest in human HCC827 cells harboring EGFR del E746-A750 mutant assessed as accumulation of cells in G2/M phase at 5 uM measured after 18 hrs by PI/RNaseA staining based flow cytometry analysis (Rvb= 16.78%)). Settings: not given.
Assay type: functional

SMILES | Activity [%]
C=CC(=O)Nc1cccc(Oc2nc(Nc3ccc(N4CCN(C)CC4)c(F)c3)nc3[nH]ccc23)c1 [ABIVERTINIB] | 8.82

What follows are compounds tested on NCI-H1975 (assay: Induction of apoptosis in human NCI-H1975 cells harboring EGFR L858R/T790M mutant assessed as total apoptotic cells at 5 uM measured after 18 hrs by Annexin V-FITC/PI staining based flow cytometry analysis (Rvb= 9.2%)). Settings: not given.
Assay type: functional

SMILES | Activity [%]
C=CC(=O)Nc1cccc(Oc2nc(Nc3ccc(N4CCN(C)CC4)c(F)c3)nc3[nH]ccc23)c1 [ABIVERTINIB] | 11.7

Each compound was assayed on HCC827 (assay: Induction of apoptosis in human HCC827 cells harboring EGFR del E746-A750 mutant assessed as late apoptotic cells at 5 uM measured after 18 hrs by Annexin V-FITC/PI staining based flow cytometry analysis (Rvb= 1.2%)). Settings: not given.
Assay type: functional

SMILES | Activity [%]
C=CC(=O)Nc1cccc(Oc2nc(Nc3ccc(N4CCN(C)CC4)c(F)c3)nc3[nH]ccc23)c1 [ABIVERTINIB] | 21.6

The compounds below were run on A549 (assay: Induction of cell cycle arrest in human A549 cells harboring wild type EGFR assessed as accumulation of cells in S phase at 5 uM measured after 18 hrs by PI/RNaseA staining based flow cytometry analysis (Rvb= 33.26%)). Settings: not given.
Assay type: functional

SMILES | Activity [%]
C=CC(=O)Nc1cccc(Oc2nc(Nc3ccc(N4CCN(C)CC4)c(F)c3)nc3[nH]ccc23)c1 [ABIVERTINIB] | 14.85

What follows are compounds tested on NCI-H1975 (assay: Induction of apoptosis in human NCI-H1975 cells harboring EGFR L858R/T790M mutant assessed as late apoptotic cells at 0.5 uM measured after 18 hrs by Annexin V-FITC/PI staining based flow cytometry analysis (Rvb= 0.1%)). Settings: not given.
Assay type: functional

SMILES | Activity [%]
C=CC(=O)Nc1cccc(Oc2nc(Nc3ccc(N4CCN(C)CC4)c(F)c3)nc3[nH]ccc23)c1 [ABIVERTINIB] | 1.2

These compounds were tested on A549 (assay: Induction of cell cycle arrest in human A549 cells harboring wild type EGFR assessed as accumulation of cells in G0/G1 phase at 1 uM measured after 18 hrs by PI/RNaseA staining based flow cytometry analysis (Rvb= 58.27%)). Settings: not given.
Assay type: functional

SMILES | Activity [%]
C=CC(=O)Nc1cccc(Oc2nc(Nc3ccc(N4CCN(C)CC4)c(F)c3)nc3[nH]ccc23)c1 [ABIVERTINIB] | 62.04

Each compound was assayed on HCC827 (assay: Induction of cell cycle arrest in human HCC827 cells harboring EGFR del E746-A750 mutant assessed as accumulation of cells in G0/G1 phase at 1 uM measured after 18 hrs by PI/RNaseA staining based flow cytometry analysis (Rvb= 49.60%)). Settings: not given.
Assay type: functional

SMILES | Activity [%]
C=CC(=O)Nc1cccc(Oc2nc(Nc3ccc(N4CCN(C)CC4)c(F)c3)nc3[nH]ccc23)c1 [ABIVERTINIB] | 73

The compounds below were run on HCC827 (assay: Induction of apoptosis in human HCC827 cells harboring EGFR del E746-A750 mutant assessed as early apoptotic cells at 0.5 uM measured after 18 hrs by Annexin V-FITC/PI staining based flow cytometry analysis (Rvb= 9.6%)). Settings: not given.
Assay type: functional

SMILES | Activity [%]
C=CC(=O)Nc1cccc(Oc2nc(Nc3ccc(N4CCN(C)CC4)c(F)c3)nc3[nH]ccc23)c1 [ABIVERTINIB] | 12

What follows are compounds tested on A549 (assay: Induction of cell cycle arrest in human A549 cells harboring wild type EGFR assessed as accumulation of cells in G2/M phase at 1 uM measured after 18 hrs by PI/RNaseA staining based flow cytometry analysis (Rvb= 8.47%)). Settings: not given.
Assay type: functional

SMILES | Activity [%]
C=CC(=O)Nc1cccc(Oc2nc(Nc3ccc(N4CCN(C)CC4)c(F)c3)nc3[nH]ccc23)c1 [ABIVERTINIB] | 8.97

Each compound was assayed on NCI-H1975 (assay: Induction of cell cycle arrest in human NCI-H1975 cells harboring EGFR L858R/T790M mutant assessed as accumulation of cells in G0/G1 phase at 0.5 uM measured after 18 hrs by PI/RNaseA staining based flow cytometry analysis (Rvb= 42.69%)). Settings: not given.
Assay type: functional

SMILES | Activity [%]
C=CC(=O)Nc1cccc(Oc2nc(Nc3ccc(N4CCN(C)CC4)c(F)c3)nc3[nH]ccc23)c1 [ABIVERTINIB] | 61.74

The compounds below were run on NCI-H1975 (assay: Induction of cell cycle arrest in human NCI-H1975 cells harboring EGFR L858R/T790M mutant assessed as accumulation of cells in S phase at 5 uM measured after 18 hrs by PI/RNaseA staining based flow cytometry analysis (Rvb= 39.78%)). Settings: not given.
Assay type: functional

SMILES | Activity [%]
C=CC(=O)Nc1cccc(Oc2nc(Nc3ccc(N4CCN(C)CC4)c(F)c3)nc3[nH]ccc23)c1 [ABIVERTINIB] | 9.8

These compounds were tested on HCC827 (assay: Cytotoxicity against human HCC827 cells harboring EGFR del E746-A750 mutant assessed as reduction in cell viability measured after 48 hrs by CCK8 assay). Settings: HCC827, 48 h.
Assay type: functional, cell-based

SMILES | IC50 [nM]
C=CC(=O)Nc1cccc(Oc2nc(Nc3ccc(N4CCN(C)CC4)c(F)c3)nc3[nH]ccc23)c1 [ABIVERTINIB] | 100

The compounds below were run on NCI-H1975 (assay: Inhibition of AKT phosphorylation in human NCI-H1975 cells at 0.1 to 5 uM incubated for 2 hrs by immunoblotting analysis). Settings: dose 0.1-5 µM.
Assay type: cell-based

SMILES | inhibition
C=CC(=O)Nc1cccc(Oc2nc(Nc3ccc(N4CCN(C)CC4)c(F)c3)nc3[nH]ccc23)c1 [ABIVERTINIB] | Active

What follows are compounds tested on NCI-H1975 (assay: Induction of cell cycle arrest in human NCI-H1975 cells harboring EGFR L858R/T790M mutant assessed as accumulation of cells in G2/M phase at 5 uM measured after 18 hrs by PI/RNaseA staining based flow cytometry analysis (Rvb= 17.33%)). Settings: not given.
Assay type: functional

SMILES | Activity [%]
C=CC(=O)Nc1cccc(Oc2nc(Nc3ccc(N4CCN(C)CC4)c(F)c3)nc3[nH]ccc23)c1 [ABIVERTINIB] | 11.14

The compounds below were run against Signal transducer and activator of transcription 3 (Homo sapiens) (UniProt P40763) (assay: Inhibition of STAT3 phosphorylation at Ser727 residue in human HBE cells at 5 uM incubated for 2 hrs by immunoblotting analysis). Settings: not given.
Signal transducer and activator of transcription 3 (Homo sapiens), sequence (P40763 whole entry): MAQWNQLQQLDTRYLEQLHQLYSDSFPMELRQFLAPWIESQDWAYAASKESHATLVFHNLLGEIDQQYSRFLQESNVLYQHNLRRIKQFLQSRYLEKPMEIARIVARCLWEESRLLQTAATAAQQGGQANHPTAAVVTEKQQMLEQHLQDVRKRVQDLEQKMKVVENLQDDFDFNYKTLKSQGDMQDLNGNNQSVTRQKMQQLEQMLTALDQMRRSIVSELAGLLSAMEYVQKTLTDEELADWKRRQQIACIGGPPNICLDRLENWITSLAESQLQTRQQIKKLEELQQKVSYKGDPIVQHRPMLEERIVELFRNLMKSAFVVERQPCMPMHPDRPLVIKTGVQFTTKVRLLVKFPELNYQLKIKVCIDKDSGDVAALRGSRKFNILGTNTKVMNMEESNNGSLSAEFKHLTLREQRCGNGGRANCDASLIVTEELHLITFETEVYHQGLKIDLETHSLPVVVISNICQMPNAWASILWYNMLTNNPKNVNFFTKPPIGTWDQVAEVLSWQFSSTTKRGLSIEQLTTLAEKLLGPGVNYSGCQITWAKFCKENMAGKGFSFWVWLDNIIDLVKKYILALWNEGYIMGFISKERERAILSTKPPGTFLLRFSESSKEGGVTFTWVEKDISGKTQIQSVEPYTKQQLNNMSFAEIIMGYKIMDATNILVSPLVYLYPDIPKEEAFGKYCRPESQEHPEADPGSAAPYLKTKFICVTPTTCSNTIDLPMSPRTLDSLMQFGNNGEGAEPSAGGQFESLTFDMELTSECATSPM
Assay type: cell-based

SMILES | inhibition
C=CC(=O)Nc1cccc(Oc2nc(Nc3ccc(N4CCN(C)CC4)c(F)c3)nc3[nH]ccc23)c1 [ABIVERTINIB] | inactive

The compounds below were run on NCI-H1975 (assay: Induction of apoptosis in human NCI-H1975 cells harboring EGFR L858R/T790M mutant assessed as late apoptotic cells at 5 uM measured after 18 hrs by Annexin V-FITC/PI staining based flow cytometry analysis (Rvb= 0.1%)). Settings: not given.
Assay type: functional

SMILES | Activity [%]
C=CC(=O)Nc1cccc(Oc2nc(Nc3ccc(N4CCN(C)CC4)c(F)c3)nc3[nH]ccc23)c1 [ABIVERTINIB] | 0.4

The compounds below were run on NCI-H1975 (assay: Induction of apoptosis in human NCI-H1975 cells harboring EGFR L858R/T790M mutant assessed as live cells at 0.5 uM measured after 18 hrs by Annexin V-FITC/PI staining based flow cytometry analysis (Rvb= 89.4%)). Settings: not given.
Assay type: functional

SMILES | Activity [%]
C=CC(=O)Nc1cccc(Oc2nc(Nc3ccc(N4CCN(C)CC4)c(F)c3)nc3[nH]ccc23)c1 [ABIVERTINIB] | 89

The compounds below were run on HCC827 (assay: Induction of apoptosis in human HCC827 cells harboring EGFR del E746-A750 mutant assessed as live cells at 5 uM measured after 18 hrs by Annexin V-FITC/PI staining based flow cytometry analysis (Rvb= 87.5%)). Settings: not given.
Assay type: functional

SMILES | Activity [%]
C=CC(=O)Nc1cccc(Oc2nc(Nc3ccc(N4CCN(C)CC4)c(F)c3)nc3[nH]ccc23)c1 [ABIVERTINIB] | 63

What follows are compounds tested on NCI-H1975 (assay: Induction of apoptosis in human NCI-H1975 cells harboring EGFR L858R/T790M mutant assessed as total apoptotic cells at 0.5 uM measured after 18 hrs by Annexin V-FITC/PI staining based flow cytometry analysis (Rvb= 9.2%)). Settings: not given.
Assay type: functional

SMILES | Activity [%]
C=CC(=O)Nc1cccc(Oc2nc(Nc3ccc(N4CCN(C)CC4)c(F)c3)nc3[nH]ccc23)c1 [ABIVERTINIB] | 9.5

These compounds were tested on HCC827 (assay: Induction of cell cycle arrest in human HCC827 cells harboring EGFR del E746-A750 mutant assessed as accumulation of cells in G0/G1 phase at 0.5 uM measured after 18 hrs by PI/RNaseA staining based flow cytometry analysis (Rvb= 49.60%)). Settings: not given.
Assay type: functional

SMILES | Activity [%]
C=CC(=O)Nc1cccc(Oc2nc(Nc3ccc(N4CCN(C)CC4)c(F)c3)nc3[nH]ccc23)c1 [ABIVERTINIB] | 75.11
